Reference: ChEMBL document CHEMBL1201862, “PubChem BioAssay data set” (2004)
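Exposure lasted 48 hours, with cells grown in 96-well plates and compounds tested at five concentrations. Here, GI50 denotes the concentration required for 50% inhibition of growth.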 The source made the active and inactive calls. No stated cut-off is given here; in the data, active = GI50 up to about 1.1 µM and inactive = higher.

How the values were obtained:
Assay in all cases: NCI tumour cell line growth inhibition, 48 h
786-0 = tested on: 786-0
A498 = tested on: A498
A549 = tested on: A549
ACHN = tested on: ACHN
BT-549 = tested on: BT-549
CAKI-1 = tested on: CAKI-1
CCRF-CEM = tested on: CCRF-CEM
COLO 205 = tested on: COLO 205
DU-145 = tested on: DU-145
EKVX = tested on: EKVX
HCC 2998 = tested on: HCC 2998
HCT-116 = tested on: HCT-116
HCT-15 = tested on: HCT-15
HL-60 = tested on: HL-60
HOP-92 = tested on: HOP-92
HT-29 = tested on: HT-29
Hs-578T = tested on: Hs-578T
IGROV-1 = tested on: IGROV-1
K562 = tested on: K562
KM12 = tested on: KM12
LOX IMVI = tested on: LOX IMVI
M14 = tested on: M14
MCF7 = tested on: MCF7
MDA-MB-231 = tested on: MDA-MB-231
MDA-MB-435 = tested on: MDA-MB-435
MOLT-4 = tested on: MOLT-4
Malme-3M = tested on: Malme-3M
NCI-H226 = tested on: NCI-H226
NCI-H23 = tested on: NCI-H23
NCI-H460 = tested on: NCI-H460
NCI-H522 = tested on: NCI-H522
NCI/ADR-RES = tested on: NCI/ADR-RES
OVCAR-3 = tested on: OVCAR-3
OVCAR-4 = tested on: OVCAR-4
OVCAR-5 = tested on: OVCAR-5
OVCAR-8 = tested on: OVCAR-8
PC-3 = tested on: PC-3
RPMI-8226 = tested on: RPMI-8226
SF-268 = tested on: SF-268
SF-295 = tested on: SF-295
SF-539 = tested on: SF-539
SK-MEL-28 = tested on: SK-MEL-28
SK-MEL-2 = tested on: SK-MEL-2
SK-MEL-5 = tested on: SK-MEL-5
SK-OV-3 = tested on: SK-OV-3
SN12C = tested on: SN12C
SNB-19 = tested on: SNB-19
SNB-75 = tested on: SNB-75
SW-620 = tested on: SW-620
T47D = tested on: T47D
TK-10 = tested on: TK-10
U-251 = tested on: U-251
UACC-257 = tested on: UACC-257
UACC-62 = tested on: UACC-62
UO-31 = tested on: UO-31
HOP-62 = tested on: HOP-62
RXF 393 = tested on: RXF 393
SR = tested on: SR

Compound: Cc1cccc(C)c1NC(=O)/C(Cc1nc2ccc([N+](=O)[O-])cc2nc1O)=N\NC(N)=O
- GI50 (786-0): > 100 µM (inactive)
- GI50 (A498): 82.4 µM (inactive)
- GI50 (A549): > 100 µM (inactive)
- GI50 (ACHN): 94 µM (inactive)
- GI50 (BT-549): 7.19 µM (inactive)
- GI50 (CAKI-1): > 100 µM (inactive)
- GI50 (CCRF-CEM): 19.6 µM (inactive)
- GI50 (COLO 205): 38.9 µM (inactive)
- GI50 (DU-145): > 100 µM (inactive)
- GI50 (EKVX): 64.6 µM (inactive)
- GI50 (HCC 2998): > 100 µM (inactive)
- GI50 (HCT-116): 83.2 µM (inactive)
- GI50 (HCT-15): > 100 µM
- GI50 (HL-60): 32.5 µM (inactive)
- GI50 (HOP-92): 57.8 µM (inactive)
- GI50 (HT-29): > 100 µM (inactive)
- GI50 (Hs-578T): > 100 µM (inactive)
- GI50 (IGROV-1): 89.3 µM (inactive)
- GI50 (K562): 39.7 µM (inactive)
- GI50 (KM12): 57.5 µM (inactive)
- GI50 (LOX IMVI): 22.1 µM (inactive)
- GI50 (M14): > 100 µM (inactive)
- GI50 (MCF7): 63.1 µM (inactive)
- GI50 (MDA-MB-231): > 100 µM (inactive)
- GI50 (MDA-MB-435): 98.2 µM (inactive)
- GI50 (MOLT-4): 31.6 µM (inactive)
- GI50 (Malme-3M): > 100 µM (inactive)
- GI50 (NCI-H226): > 100 µM (inactive)
- GI50 (NCI-H23): > 100 µM (inactive)
- GI50 (NCI-H460): > 100 µM (inactive)
- GI50 (NCI-H522): 31.6 µM (inactive)
- GI50 (NCI/ADR-RES): 85.5 µM (inactive)
- GI50 (OVCAR-3): > 100 µM (inactive)
- GI50 (OVCAR-4): 90.6 µM (inactive)
- GI50 (OVCAR-5): > 100 µM (inactive)
- GI50 (OVCAR-8): > 100 µM (inactive)
- GI50 (PC-3): 66.5 µM (inactive)
- GI50 (RPMI-8226): 37.9 µM (inactive)
- GI50 (SF-268): > 100 µM (inactive)
- GI50 (SF-295): > 100 µM (inactive)
- GI50 (SF-539): > 100 µM (inactive)
- GI50 (SK-MEL-28): > 100 µM (inactive)
- GI50 (SK-MEL-2): > 100 µM (inactive)
- GI50 (SK-MEL-5): > 100 µM (inactive)
- GI50 (SK-OV-3): > 100 µM (inactive)
- GI50 (SN12C): > 100 µM (inactive)
- GI50 (SNB-19): > 100 µM (inactive)
- GI50 (SNB-75): > 100 µM (inactive)
- GI50 (SW-620): 52.5 µM (inactive)
- GI50 (T47D): > 100 µM (inactive)
- GI50 (TK-10): > 100 µM (inactive)
- GI50 (U-251): > 100 µM (inactive)
- GI50 (UACC-257): > 100 µM (inactive)
- GI50 (UACC-62): 80.9 µM (inactive)
- GI50 (UO-31): 45.3 µM (inactive)

Compound: CCOC(=O)C[n+]1cccc(C2(c3cc4ccccc4[nH]3)OCCO2)c1
- GI50 (786-0): > 100 µM (inactive)
- GI50 (A498): > 100 µM (inactive)
- GI50 (A549): > 100 µM (inactive)
- GI50 (ACHN): > 100 µM (inactive)
- GI50 (BT-549): > 100 µM (inactive)
- GI50 (CAKI-1): > 100 µM (inactive)
- GI50 (CCRF-CEM): > 100 µM (inactive)
- GI50 (COLO 205): > 100 µM (inactive)
- GI50 (DU-145): > 100 µM (inactive)
- GI50 (EKVX): > 100 µM (inactive)
- GI50 (HCC 2998): > 100 µM (inactive)
- GI50 (HCT-116): > 100 µM (inactive)
- GI50 (HCT-15): > 100 µM
- GI50 (HL-60): > 100 µM (inactive)
- GI50 (HOP-62): > 100 µM (inactive)
- GI50 (HOP-92): > 100 µM (inactive)
- GI50 (HT-29): > 100 µM (inactive)
- GI50 (Hs-578T): > 100 µM (inactive)
- GI50 (IGROV-1): > 100 µM (inactive)
- GI50 (K562): > 100 µM (inactive)
- GI50 (KM12): > 100 µM (inactive)
- GI50 (LOX IMVI): > 100 µM (inactive)
- GI50 (M14): > 100 µM (inactive)
- GI50 (MCF7): > 100 µM (inactive)
- GI50 (MDA-MB-231): > 100 µM (inactive)
- GI50 (MDA-MB-435): > 100 µM (inactive)
- GI50 (MOLT-4): > 100 µM (inactive)
- GI50 (Malme-3M): > 100 µM (inactive)
- GI50 (NCI-H226): > 100 µM (inactive)
- GI50 (NCI-H23): > 100 µM (inactive)
- GI50 (NCI-H460): > 100 µM (inactive)
- GI50 (NCI/ADR-RES): > 100 µM (inactive)
- GI50 (OVCAR-3): > 100 µM (inactive)
- GI50 (OVCAR-4): > 100 µM (inactive)
- GI50 (OVCAR-5): > 100 µM (inactive)
- GI50 (OVCAR-8): > 100 µM (inactive)
- GI50 (PC-3): > 100 µM (inactive)
- GI50 (RPMI-8226): > 100 µM (inactive)
- GI50 (RXF 393): > 100 µM (inactive)
- GI50 (SF-268): > 100 µM (inactive)
- GI50 (SF-295): > 100 µM (inactive)
- GI50 (SF-539): > 100 µM (inactive)
- GI50 (SK-MEL-28): > 100 µM (inactive)
- GI50 (SK-MEL-2): > 100 µM (inactive)
- GI50 (SK-MEL-5): > 100 µM (inactive)
- GI50 (SK-OV-3): > 100 µM (inactive)
- GI50 (SNB-19): > 100 µM (inactive)
- GI50 (SNB-75): > 100 µM (inactive)
- GI50 (SR): > 100 µM (inactive)
- GI50 (SW-620): > 100 µM (inactive)
- GI50 (T47D): > 100 µM (inactive)
- GI50 (TK-10): > 100 µM (inactive)
- GI50 (U-251): > 100 µM (inactive)
- GI50 (UACC-257): > 100 µM (inactive)
- GI50 (UACC-62): > 100 µM (inactive)
- GI50 (UO-31): > 100 µM (inactive)
